# Test results published in publication PMC5405074, “Receptor-Mediated Melanoma Targeting with Radiolabeled α-Melanocyte-Stimulating Hormone: Relevance of the Net Charge of the Ligand” (Frontiers in Endocrinology, 2017).
# Where two headings read alike, the source gives them in different places. Non-standard residues stand in square brackets, D forms with d. Residues, ends and D or L forms follow the SMILES beside them. *: point of attachment. DOTA = O=C(O)CN1CCN(CC(=O)O)CCN(CC(=O)*)CCN(CC(=O)O)CC1; pY = N[C@@H](Cc1ccc(OP(=O)(O)O)cc1)C(=O)O; Nle = CCCC[C@H](N)C(=O)O
# Assays:
# [1] = target: T1, MC1R (HBL cells) (Homo sapiens, UniProt Q01726); experiment: Competition binding assay with [^125I]-NDP-MSH, human HBL melanoma cells
# T1 construct: endogenous in cells; host or cells: human HBL melanoma cell line
# T1 sequence (Q01726 whole entry): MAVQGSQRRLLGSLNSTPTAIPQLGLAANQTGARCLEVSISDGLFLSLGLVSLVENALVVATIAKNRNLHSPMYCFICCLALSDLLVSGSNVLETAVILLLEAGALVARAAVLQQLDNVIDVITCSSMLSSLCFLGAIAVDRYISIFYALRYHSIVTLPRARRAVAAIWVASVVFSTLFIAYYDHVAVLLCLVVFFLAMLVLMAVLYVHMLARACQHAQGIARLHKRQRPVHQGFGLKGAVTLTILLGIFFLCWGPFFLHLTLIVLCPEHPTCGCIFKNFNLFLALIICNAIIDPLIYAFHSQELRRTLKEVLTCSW
# Protocol: (§1) Triplicates of 100-µL volumes of B16-F1 or HBL cell suspensions adjusted to 4 × 10^6/mL were incubated in 96-well U-bottom microplates (Falcon 3077). The binding medium consisted of MEM with Earle’s salts, 0.2% BSA, and 0.3 mM 1,10-phenanthroline. This binding medium was called mouse binding medium (MBM). Triplicates of competitor peptide solution (50 µL) yielding final concentrations ranging from 1 × 10^−6 to 1 × 10^−12 M were added. [^125I]NDP-MSH (50,000 cpm) in 50 µL was finally added to each well. The plates were incubated at 15°C for 3 h for B16-F1 cells and at 37°C for 2 h for HBL cells. The incubation was stopped by covering the plates with ice for 10 min. A cell harvester was used to collect cell-bound radioactivity on filters (Packard Unifilter-96 GF/B). The collected radioactivity was counted on a TopCount scintillation counter (Packard) after addition of 50 µL Microscint-20 scintillation cocktail (Perkin Elmer). The IC50 values were calculated with the Prism 6 software (GraphPad Software Inc., San Diego CA, USA).
# (§2) The binding affinity of the peptides to MC1R was assessed by competition binding assays using [^125I]-NDP-MSH as radioligand and both murine B16-F1 and human HBL cells.
# [2] = test system: B16-F1 tumor-bearing mice; experiment: Biodistribution of ^111In-labeled peptides in B16-F1 melanoma-bearing mice; type: in vivo, mouse (B6D2F1)
# Summary of the method: (§3)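 B16-F1 cells (about 5 × 10^5) grown s.c. in female B6D2F1 mice; 7 days later 185 kBq ^111In-labeled peptide injected i.v. Tissues collected at 4, 24 and 48 h and γ-counted, uptake given as %ID/g (mean ± SEM); non-specific uptake from co-injection of 50 µg α-MSH. Urine metabolites analysed by RP-HPLC/γ-detection.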
# [3] = as above; type: in vivo, mouse (B6D2F1); conditions: female, iv, total radioactivity, ^111In-labeled peptide, 185 kBq i.v., mean ± SEM of three experiments, n = 5 animals each
# Summary of the method: as §3
# [4] = target: T2, MC1R (B16-F1 cells) (Mus musculus, UniProt Q01727); experiment: Competition binding assay with [^125I]-NDP-MSH, mouse B16-F1 melanoma cells
# T2 construct: endogenous in cells; host or cells: mouse B16-F1 melanoma cells
# T2 sequence (Q01727 whole entry): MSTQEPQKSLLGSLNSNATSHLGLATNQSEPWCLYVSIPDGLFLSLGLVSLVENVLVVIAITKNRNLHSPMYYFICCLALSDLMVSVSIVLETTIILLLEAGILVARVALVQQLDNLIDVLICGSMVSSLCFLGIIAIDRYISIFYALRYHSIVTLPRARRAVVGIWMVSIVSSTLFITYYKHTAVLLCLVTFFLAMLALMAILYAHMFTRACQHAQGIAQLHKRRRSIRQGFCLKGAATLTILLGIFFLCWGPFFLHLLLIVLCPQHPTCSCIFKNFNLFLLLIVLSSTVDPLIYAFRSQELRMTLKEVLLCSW
# Protocol: as §1, §2
# [5] = ^111In-labeled peptide, 185 kBq i.v., 4 h, mean ± SEM of three experiments, n = 5 animals each
# [6] = B6D2F1 (C57BL/6 × DBA/2F1 hybrids), mouse, blood, read-out: Blood uptake
# [7] = B6D2F1 (C57BL/6 × DBA/2F1 hybrids), mouse, muscle, read-out: Muscle uptake
# [8] = B6D2F1 (C57BL/6 × DBA/2F1 hybrids), mouse, skin, read-out: Skin uptake
# [9] = B6D2F1 (C57BL/6 × DBA/2F1 hybrids), mouse, tumor, read-out: Tumor uptake
# [10] = B6D2F1, mouse, bone, read-out: Bone uptake
# [11] = B6D2F1, mouse, heart, read-out: Heart uptake
# [12] = B6D2F1, mouse, kidney, read-out: Kidney uptake
# [13] = B6D2F1, mouse, liver, read-out: Liver uptake
# [14] = B6D2F1, mouse, lung, read-out: Lung uptake
# [15] = B6D2F1, mouse, pancreas, read-out: Pancreas uptake
# [16] = B6D2F1, mouse, small intestines, read-out: Small intestines uptake
# [17] = B6D2F1, mouse, spleen, read-out: Spleen uptake
# [18] = B6D2F1, mouse, stomach, read-out: Stomach uptake
smiles,measurement,setting,value
"CCCC[C@H](NC(=O)[C@H](Cc1ccc(OP(=O)(O)O)cc1)NC(=O)CNC(=O)CN1CCN(CC(=O)O)CCN(CC(=O)O)CCN(CC(=O)O)CC1)C(=O)N[C@@H](CC(=O)O)C(=O)N[C@@H](Cc1c[nH]cn1)C(=O)N[C@H](Cc1ccccc1)C(=O)N[C@@H](CCCNC(=N)N)C(=O)N[C@@H](Cc1c[nH]c2ccccc12)C(N)=O [DOTA-Phospho-MSH2-9, DOTA-Gly-Tyr(P)-Nle-Asp-His-D-Phe-Arg-Trp-NH2] ({DOTA}-G[pY][Nle]DH[dF]RW-NH2)",IC50,[1],3.03 ± 0.59 nM
same,Tumor-to-kidney ratio compared with other peptides (in words),[2]; AUC (4–48 h) or overall comparison,best tumor-to-kidney ratio of all linear MSH peptides so far investigated
same,Kidney uptake,[2]; [5],2.68 ± 0.18 %ID/g
same,Tumor uptake,[2]; [5],7.33 ± 0.47 %ID/g
same,tissue uptake at 4 h,[3]; [6],0.02 %ID/g
same,tissue uptake at 24 h,[3]; [6],0.01 %ID/g
same,tissue uptake at 48 h,"[3]; B6D2F1 (C57BL/6 × DBA/2F1 hybrids), mouse, bone, read-out: Bone uptake",0.06 ± 0.01 %ID/g
same,tissue uptake at 4 h,[3]; [7],0.02 %ID/g
same,tissue uptake at 24 h,[3]; [7],0.02 %ID/g
same,tissue uptake at 48 h,[3]; [7],0.02 %ID/g
same,tissue uptake at 4 h,[3]; [8],0.12 ± 0.03 %ID/g
same,tissue uptake at 24 h,[3]; [8],0.07 ± 0.02 %ID/g
same,tissue uptake at 48 h,[3]; [8],0.08 ± 0.02 %ID/g
same,tissue uptake at 24 h,[3]; [9],2.92 ± 0.12 %ID/g
same,tissue uptake at 48 h,[3]; [9],1.21 ± 0.18 %ID/g
same,tissue uptake at 4 h,[3]; [10],0.08 ± 0.01 %ID/g
same,tissue uptake at 24 h,[3]; [10],0.11 ± 0.02 %ID/g
same,tissue uptake at 4 h,[3]; [11],0.04 %ID/g
same,tissue uptake at 24 h,[3]; [11],0.03 %ID/g
same,tissue uptake at 48 h,[3]; [11],0.03 %ID/g
same,tissue uptake at 24 h,[3]; [12],1.88 ± 0.11 %ID/g
same,tissue uptake at 48 h,[3]; [12],1.04 ± 0.07 %ID/g
same,tissue uptake at 4 h,[3]; [13],0.2 ± 0.01 %ID/g
same,tissue uptake at 24 h,[3]; [13],0.16 ± 0.02 %ID/g
same,tissue uptake at 48 h,[3]; [13],0.12 ± 0.01 %ID/g
same,tissue uptake at 4 h,[3]; [14],0.07 ± 0.02 %ID/g
same,tissue uptake at 24 h,[3]; [14],0.04 %ID/g
same,tissue uptake at 48 h,[3]; [14],0.03 %ID/g
same,tissue uptake at 4 h,[3]; [15],0.05 ± 0.01 %ID/g
same,tissue uptake at 24 h,[3]; [15],0.03 %ID/g
same,tissue uptake at 48 h,[3]; [15],0.03 %ID/g
same,tissue uptake at 4 h,[3]; [16],0.11 ± 0.03 %ID/g
same,tissue uptake at 24 h,[3]; [16],0.06 %ID/g
same,tissue uptake at 48 h,[3]; [16],0.06 %ID/g
same,tissue uptake at 4 h,[3]; [17],0.11 ± 0.01 %ID/g
same,tissue uptake at 24 h,[3]; [17],0.1 ± 0.01 %ID/g
same,tissue uptake at 48 h,[3]; [17],0.09 ± 0.01 %ID/g
same,tissue uptake at 4 h,[3]; [18],0.17 ± 0.08 %ID/g
same,tissue uptake at 24 h,[3]; [18],0.16 ± 0.02 %ID/g
same,tissue uptake at 48 h,[3]; [18],0.07 %ID/g
same,IC50,[4],2.32 ± 0.8 nM
